Earlier results, collected in patent US6703034B2, “Neem oil microemulsion without cosurfactants or alcohols and a process to form the same” (University of Florida, priority 2000, dated 2004).

Key:
[1] = system: certain insects; details: quantities as low as
[2] = system: Insects; details: treated during larval and pupal stages

Compound: C/C=C(\C)C(=O)O[C@H]1C[C@@H](OC(C)=O)[C@@]2(C(=O)OC)CO[C@H]3[C@@H](O)[C@@](C)([C@]45O[C@@]4(C)[C@H]4C[C@@H]5O[C@@H]5OC=C[C@@]54O)[C@H]4[C@]1(CO[C@]4(O)C(=O)OC)[C@@H]32 [azadirachtin]
- quantity at which potent (repels certain insects) [1]: 1 ppm
- time to death of treated insects [2]: 3 to 14 days
